In patent US8236756B2, “Prodrugs cleavable by CD26” (Consejo Superior de Investigaciones Clentificas (CSIC), priority 2003, dated 2012):

Experiments:
[1] = Effect of CD26 inhibitor on conversion of CAM-405 to CAM-212 by human serum; format: biochemical; conditions: 2.5% HS in PBS, 50 μM CAM-405
Method: (§1) CD26-catalysed CAM-405 conversion to CAM-212 was recorded in the absence or presence of the CD26 inhibitor diprotin A (FIG. 5). […] These observations point to CD26 as the main and predominant enzyme responsible in HS and BS to remove the dipeptide part from the lipophilic NAP-TSAO dipeptide nucleoside analogue.
(§2) All enzyme activity assays were performed in Eppendorf tubes on a heating block at 37° C. To each tube were added 32 μl CD26 (at a final concentration of 1.5 milliUnits) or 10 μl foetal bovine serum (BS) (final concentration: 2.5% BS in PBS; preheated at 56° C. for 30 min) or 10 μl human serum (HS) (final concentration: 2.5% HS in PBS), 40 μl of appropriate concentrations of inhibitor (Diprotin A) solution in PBS (for the exact concentrations, see the legend to FIG. 5), CAM-405 (the substrate of the reaction) at […] (final concentration) and PBS to reach a total volume of 400 μl. The pH of the reaction mixture was 7.5, which is virtually identical to the physiological pH of plasma. The reaction was started by the addition of the enzyme or serum and carried out at 37° C. After 5 hr, 100 μl reaction mixture was taken from the Eppendorf tube and added to 200 μl cold methanol to precipitate the proteins. After 10 min standing on ice, the contents of the tubes were centrifuged and the supernatants analysed by HPLC on a reverse phase column (RP-8, Merck Laboratories). […]

purified CD26 [2] = molecular target: T1, purified CD26 (Homo sapiens, UniProt P27487); assay: Effect of CD26 inhibitor on conversion of CAM-405 to CAM-212 by purified CD26; format: biochemical; conditions: CD26 1.5 mUnits, 50 μM CAM-405
T1 construct: made in house
T1 sequence (P27487 whole entry): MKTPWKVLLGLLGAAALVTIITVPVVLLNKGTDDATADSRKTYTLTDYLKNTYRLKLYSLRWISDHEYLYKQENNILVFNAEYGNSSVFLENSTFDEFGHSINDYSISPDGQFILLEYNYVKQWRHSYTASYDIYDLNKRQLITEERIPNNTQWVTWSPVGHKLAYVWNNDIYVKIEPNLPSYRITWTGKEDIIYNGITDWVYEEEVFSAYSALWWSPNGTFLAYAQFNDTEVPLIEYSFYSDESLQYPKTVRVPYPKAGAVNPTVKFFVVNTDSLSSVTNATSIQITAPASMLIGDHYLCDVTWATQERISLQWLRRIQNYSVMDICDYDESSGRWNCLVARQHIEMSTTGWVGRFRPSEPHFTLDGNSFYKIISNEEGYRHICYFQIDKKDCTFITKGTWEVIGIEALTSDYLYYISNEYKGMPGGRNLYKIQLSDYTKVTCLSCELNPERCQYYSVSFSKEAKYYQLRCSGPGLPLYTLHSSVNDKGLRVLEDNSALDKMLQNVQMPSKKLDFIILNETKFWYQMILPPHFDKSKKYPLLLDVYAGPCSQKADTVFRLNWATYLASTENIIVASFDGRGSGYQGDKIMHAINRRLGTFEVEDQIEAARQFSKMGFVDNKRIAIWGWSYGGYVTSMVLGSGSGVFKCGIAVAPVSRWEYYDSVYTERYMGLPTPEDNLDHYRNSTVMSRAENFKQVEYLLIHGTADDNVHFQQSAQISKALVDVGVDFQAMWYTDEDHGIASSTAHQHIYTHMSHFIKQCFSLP
Method: as §1, §2

[3] = Effect of CD26 inhibitor on conversion of CAM-405 to CAM-212 by bovine serum; format: biochemical; conditions: 2.5% BS in PBS, 50 μM CAM-405
Method: as §1, §2

[4] = Conversion of prodrugs to parent compound by bovine serum diluted in PBS; format: in vitro ADME; conditions: 50 μM; 0.5-5% BS in PBS; 3, 6, 24 hr; 37° C.
Method: (§3) Human and bovine serum were incubated for 3 hr, 6 hr and/or 24 hr at 37° C. in the presence of 50 μM CAM-405. The sera were diluted in PBS at a final concentration of 0.5, 1, 2.5 or 5%. […] The longer the incubation time, and the higher the serum concentration used, the faster the conversion of CAM-405 to CAM-212 occurred (FIG. 4). As also noted for CD26, HS- and BS-catalysed reaction slowed down in function of time, and was not linearly proportional with serum concentration (FIG. 4). These findings provide again evidence for a pronounced feed-back inhibition of dipeptidyl-peptidase activity in human and bovine serum by the released Val-Pro dipeptide. HS was more efficient in converting CAM-405 to CAM-212 than BS (FIG. 4). Since 1% HS is able to hydrolyse ˜20% of 50 μM CAM-405 within 3 hrs of incubation, it could be calculated that undiluted serum would have been able to convert this prodrug amount to its parent compound at a hundred fold higher speed, that is, within 1.8 min, provided that no feed-back inhibition would have occurred (as expected in the intact organism where release of Pro-Val would immediately result in disappearance from the plasma due to several mechanisms including organ uptake, renal excretion, etc.).
(§4) Ten percent BS or HS converted 40 to 70% of PI-2 to PI-1 in one hour (FIG. 10). Two percent BS and HS converted PI-2 to PI-1 by 8% and 25%, respectively. After 4 hrs, 35% and 95% of compound was hydrolyzed by BS and HS, respectively (FIG. 11).
(§5) The TSAO derivatives depicted in FIG. 1 can be synthesised as described below. GlyPro-pNA (GP-pNA), Diprotin A and Val-Pro were purchased from Sigma-Aldrich (Bornem, Belgium). CD26 was purified as described before [De Meester et al. J. Immunol. Methods (1996), 189: 99-105]. Foetal bovine serum (FBS) was obtained from Integro (Dieren, The Netherlands). Human serum represented a pooled serum that was derived from 10 healthy volunteers (blood donors). Human lymphocyte CEM cells were derived from the ATCC (Rockville, Md.).

[5] = system: T-lymphocytic CEM cell suspensions; assay: Conversion of Val-Pro-NAP-TSAO to NAP-TSAO by CEM cell suspensions; format: cell-based, human; conditions: ten million CEM cells in 200 μl PBS; 3 hrs; 37° C.
Method: The conversion of Val-Pro-NAP-TSAO (CAM-405) to NAP-TSAO (CAM-212) also efficiently occurred by carefully washed T-lymphocytic CEM cell suspensions in PBS. Ten million CEM cells suspended in 200 μl PBS hydrolysed the Val-Pro moiety from CAM-405 by 65% within 3 hrs of incubation at 37° C. This amount of hydrolysis was found both in the PBS supernatant and in the CEM cell extracts. Presumably, CD26 present in the cell membrane of CEM cells had cleaved-off the Val-Pro from CAM-405 after which both truncated and intact prodrug had been taken up by the lymphocytic cells to an equal extent.
as §5

purified CD26 [6] = molecular target: T1, purified CD26; assay: Conversion of peptide prodrugs to parent compound by purified CD26 (HPLC); format: biochemical; conditions: 50 μM, 5.7 mUnits purified CD26, 37° C.
[7] = Conversion of prodrugs to parent compound by human serum diluted in PBS; format: in vitro ADME
Method: as §3
Only a very limited amount of NAP-TSAO (but not D-Pro-NAP-TSAO) had been detected (FIG. 6).
as §4, §5

purified CD26 [8] = molecular target: T1, purified CD26; assay: Conversion of peptide prodrugs to parent compound by purified CD26 (HPLC); format: biochemical
Method: To reveal whether CD26 recognizes such synthetic di/tripeptide derivatives of lipophilic nucleoside analogues as a substrate, 50 μM CAM-405 or CAM-431 was exposed to 5.7 mUnits of purified CD26, and the conversion of CAM-405 or CAM-431 to respectively CAM-212 or CAM-403 (Val-NAP-TSAO) was recorded in function of incubation time by HPLC analysis. […] Within the first 10 min of the reaction, at least 20% of CAM-405 had been converted to CAM-212, fifty percent of the TSAO dipeptide derivative was converted to CAM-212 within 30 min of the reaction and ˜67% of CAM-405 was hydrolyse after 60 min. Thus, the reaction rate started already to slow down after the first 10 min of drug exposure (FIG. 2). Most likely, the release of the reaction product Val-Pro dose-dependently feed-back inhibited the CD26-catalysed dipeptidyl-peptidase reaction. […] Thus, in the presence of 50 μM CAM-405, hydrolysis of 50% of CAM-405 to CAM-212 results in the appearance of 25 μM Val-Pro, that is a concentration that (feed-back) inhibits the CD26 reaction by ˜50%. These findings explain why the CD26-catalysed reaction levels-off shortly after the start of the exposure of the drug to CD26. […] Thus, a further level of modulation of the rate of prodrug release can be introduced by choosing a dipeptide moiety that competes for the active site of CD26, until the dipeptide has diffused from the tissue wherein CD26 is present. The inhibitory activity of any dipeptide can be evaluated by the above mentioned assay.
The conversion rate in function of time is given in Table 1 for NAP-TSAO-dipeptides where the dipeptide consists of: Val-Pro, Val-D-Pro, Asp-Pro, Lys-Pro, Tyr-Pro, Gly-Pro, Val-4-hydroxyPro, Gly-3,4-dihydroxyPro, but also Val-Gly, Val-Ala, Val-Leu and Val-Phe. It is clear that the conversion rate to the parent NAP-TSAO differs depending the nature of the dipeptide. Also, when the terminal amine of the dipeptide has been blocked by a lipophilic group (i.e. methyl, Z or Fmoc), the prodrug looses measurable substrate activity for CD26.
The conversion rate in function of time is given in Table 2 for tetrapeptide NAP-TSAO compounds where the tetrapeptide consists of: Val-Pro-Val-Pro [SEQ ID no:6] (CAM 467), Val-Ala-Val-Pro [SEQ ID no:7] (CAM 473) or Lys-Pro-Asp-Pro [SEQ ID no:8] (CAM 477). […] Only traces of dipeptide prodrug (CAM 405) is seen as intermediate in the conversion of the tetrapeptide CAM 473 to NAP-TSAO.
as §2, with “Laboratories). CAM-405 was separated from CAM-212 (the product of the reaction) by a gradient of 50 mM sodium phosphate+5 mM heptane sulfonic acid pH 3.2 (Buffer A) and acetonitrile (Buffer B) as follows: Buffer A: 98%+2% Buffer B, 2 min; linear gradient to 20% Buffer.” for “Laboratories).”

In the case of Diprotin A, the “Suppression of conversion of CAM-405 to CAM-212 by HS at 100 μM inhibitor” value ([1]; 100 μM) is reported as > 50%, the “Prevention of conversion of CAM-405 to CAM-212 in HS at 1000 μM inhibitor” value ([1]; 1000 μM) is reported as “nearly complete prevention” and the “Suppression of conversion of CAM-405 to CAM-212 by purified CD26 at 100 μM inhibitor” value (purified CD26 [2]; 100 μM) is reported as > 50%. For the same molecule, the “Prevention of conversion of CAM-405 to CAM-212 by purified CD26 at 1000 μM inhibitor” value (purified CD26 [2]; 1000 μM) was “nearly complete prevention”, the “Suppression of conversion of CAM-405 to CAM-212 by BS at 100 μM inhibitor” value ([3]; 100 μM) was > 50% and the “Prevention of conversion of CAM-405 to CAM-212 in BS at 1000 μM inhibitor” value ([3]; 1000 μM) was “nearly complete prevention”.
With Cc1cn(C2OC(CO[Si](C)(C)C(C)(C)C)C3(OS(=O)(=O)C=C3N)C2O[Si](C)(C)C(C)(C)C)c(=O)n(CCCNC(=O)[C@@H]2CCCN2C(=O)[C@@H](N)C(C)C)c1=O (stereo partly drawn) [CAM-405, H-Val-Pro-NAP-TSAO] the “Conversion of CAM-405 to CAM-212 by bovine serum, in words” value [4] was “efficiently converted”, the “Hydrolysis of the Val-Pro moiety by CEM cells” value [5] was 65% and the “Hydrolysis of CAM-405, after 60 min” value (purified CD26 [6]) was ~67%. For the same molecule, the “Calculated time for undiluted serum to convert this prodrug amount to parent compound” value ([7]; 10 μM, extrapolated from 1% human serum) was “less than 1.8 min”, the “Conversion of CAM-405 to CAM-212 by human serum, in words” value ([7]; 50 μM, 0.5-5% HS in PBS, 3, 6, 24 hr, 37° C.) was “efficiently converted” and the “Hydrolysis of CAM-405 by 1% human serum within 3 hrs” value ([7]; 50 μM, 1% HS in PBS, 3 hrs, 37° C.) was ~20%. The “Calculated time for undiluted serum to convert this prodrug amount to parent compound” value ([7]; undiluted human serum, extrapolated, provided no feed-back inhibition) was ≤ 1.8 min, the “Conversion of CAM-405 to CAM-212, first 10 min” value (purified CD26 [8]; 50 μM, 5.7 mUnits purified CD26, 37° C., 10 min) was “at least 20%” and the “Conversion of CAM-405 to CAM-212, within 30 min” value (purified CD26 [8]; 50 μM, 5.7 mUnits purified CD26, 37° C., 30 min) was “fifty”. For the same molecule, the “Conversion % to parent compound by purified CD26, 1 h” value (purified CD26 [8]; Table 1, purified CD26 1.5 mUnits, 1 h) was 37%, the “Conversion % to parent compound by purified CD26, 4 h” value (purified CD26 [8]; Table 1, purified CD26 1.5 mUnits, 4 h) was 62% and the “Conversion % to parent compound by purified CD26, 24 h” value (purified CD26 [8]; Table 1, purified CD26 1.5 mUnits, 24 h) was 61%. The “% conversion to parent compound by purified CD26, 1 h” value (purified CD26 [8]; Table 2, purified CD26 1.5 mUnits, 1 h) was 37%, the “% conversion to parent compound by purified CD26, 4 h” value (purified CD26 [8]; Table 2, purified CD26 1.5 mUnits, 4 h) was 62% and the “% conversion to parent compound by purified CD26, 24 h” value (purified CD26 [8]; Table 2, purified CD26 1.5 mUnits, 24 h) was 61%.
